Data reported in the NIST ThermoML archive (doi:10.1016/j.fluid.2007.08.001).
± gives the expanded uncertainty stated by the source.

Settings: Liquid; for mass density: 303.15 K, 95.3 kPa, Pycnometric method

| SMILES | mass density [kg/m3] | also measured |
| --- | --- | --- |
| C[S+](C)[O-] [dimethyl sulfoxide] | 1092.4 ± 1.1 | vapor or sublimation pressure (460.95 K): 95.3 ± 1.9 kPa |
| Clc1ccccc1 [chlorobenzene] | 1095.52 ± 1.1 | vapor or sublimation pressure (402.35 K): 95.3 ± 1.9 kPa |
| Cc1ccccc1 [toluene] | 857.66 ± 0.86 | vapor or sublimation pressure (381.65 K): 95.3 ± 1.9 kPa |
| CCc1ccccc1 [ethylbenzene] | 858.2 ± 0.86 | vapor or sublimation pressure (406.95 K): 95.3 ± 1.9 kPa |
| O=[N+]([O-])c1ccccc1 [nitrobenzene] | 1193.4 ± 1.3 | vapor or sublimation pressure (483.05 K): 95.3 ± 1.9 kPa |
| Brc1ccccc1 [bromobenzene] | 1481.48 ± 1.7 | vapor or sublimation pressure (426.85 K): 95.3 ± 1.9 kPa |
